≈ marks a conversion by molar mass, not a printed value.

One may read the MIC as the smallest concentration in the dilution series that meets the test's criterion for growth inhibition.

Assay [1] has as its system S. aureus 133. As to the kind of experiment: MIC, liquid dilution test (96-well microtitre plate). The class given is cell-based. Conditions: 18-24 h. The method, then: (§1) The minimum inhibitory concentration (MIC) is the minimum concentration of an antibiotic with which the growth of a test microbe is inhibited over 18-24 h. The inhibitor concentration can in these cases be determined by standard microbiological methods (see, for example, The National Committee for Clinical Laboratory Standards. Methods for dilution antimicrobial susceptibility tests for bacteria that grow aerobically; approved standard-fifth edition. NCCLS document M7-A5 [ISBN 1-56238-394-9]. NCCLS, 940 West Valley Road, Suite 1400, Wayne, Pa. 19087-1898 USA, 2000). The MIC of the compounds of the invention is determined in the liquid dilution test on the 96-well microtitre plate scale. The bacterial microbes are cultivated in a minimal medium (18.5 mM Na2HPO4, 5.7 mM KH2PO4, 9.3 mM NH4Cl, 2.8 mM MgSO4, 17.1 mM NaCl, 0.033 μg/ml thiamine hydrochloride, 1.2 μg/ml nicotinic acid, 0.003 μg/ml biotin, 1% glucose, 25 μg/ml of each proteinogenic amino acid with the exception of phenylalanine; [H.-P. Kroll; unpublished]) with addition of 0.4% BH broth (test medium). In the case of Enterococcus faecium L4001, heat-inactivated fetal calf serum (FCS; GibcoBRL, Germany) is added to the test medium in a final concentration of 10%. Overnight cultures of the test microbes are diluted to an OD578 of 0.001(to 0.01 in the case of enterococci) in fresh test medium, and incubated 1:1 with dilutions of the test substances (1:2 dilution steps) in test medium (200 μl final volume). The cultures are incubated at 37° C. for 18-24 hours; enterococci in the presence of 5% CO2.
(§2) The lowest substance concentration in each case at which bacterial growth was no longer visible is defined as the MIC. […] The compounds show a graded antibacterial effect against most of the test microbes.

The test system of assay [2] is E. faecium L4001. The assay is described as above. The class given is cell-based, Enterococcus faecium. The procedure:
as §1, §2

The subject of assay [3] is S. aureus 133. As to the kind of experiment: MIC, alternative method, agar dilution test. The class given is cell-based. As to conditions: agar dilution, 1.5% agar with 20% defibrinated horse blood, 5% CO2, 18-24 h; for MIC: Staphylococcus aureus, 133, read-out: MIC S. aureus 133. The procedure: (§3) The minimum inhibitory concentration (MIC) is the minimum concentration of an antibiotic with which the growth of a test microbe is inhibited over 18-24 h. The inhibitor concentration can be determined by standard microbiological methods using modified medium in an agar dilution test (see, for example, the National Committee for Clinical Laboratory Standards. Methods for dilution antimicrobial susceptibility tests for bacteria that grow aerobically; approved standard-fifth edition. NCCLS document M7-A5 [ISBN 1-56238-394-9]. NCCLS, 940 West Valley Road, Suite 1400, Wayne, PA. 19087-1898 USA, 2000). The bacterial microbes are cultivated on 1.5% agar plates containing 20% defibrinated horse blood. The test microbes, which are incubated on Columbia blood agar plates (Becton-Dickinson) overnight, are diluted in PBS, adjusted to a microbe count of about 5×10^5 microbes/ml and placed as drops (1-3 μl) on test plates. The test substances contain various dilutions of the test substances (1:2 dilution stages). The cultures are incubated at 37° C. in the presence of 5% CO2 for 18-24 hours.
(§4) The lowest concentration of each substance at which no visible bacterial growth occurs is defined as the MIC and is reported in μg/ml.
On the technique in general: Agar dilution tests growth on a series of plates holding different concentrations.

For another assay, the system named is S. aureus T17. As to the kind of experiment: MIC, alternative method, agar dilution test. Conditions: agar dilution, 1.5% agar with 20% defibrinated horse blood, 5% CO2, 18-24 h; for MIC: Staphylococcus aureus, T17, read-out: MIC S. aureus T17. The class given is cell-based. The method, then:
as §3, §4

For assay [4], the system named is E. faecium L4001. As to the kind of experiment: MIC, alternative method, agar dilution test. As to conditions: agar dilution, 1.5% agar with 20% defibrinated horse blood, 5% CO2, 18-24 h; for MIC: Enterococcus faecium, L4001, read-out: MIC E. faecium L4001. The class given is cell-based, Enterococcus faecium. The procedure:
as §3, §4

Another assay relates to S. aureus RN4220Bi^R. The assay can be described thus: Biphenomycin B MIC of the isolated resistant colony. It counts as cell-based. Conditions: colony isolated in vitro. The method, then: The S. aureus strain RN422OBi^R is isolated in vitro. […] Whereas about 1×10^7 cells grow on the antibiotic-free plate, about 100 colonies grow on the antibiotic-containing plate, corresponding to a resistance rate of 1×10^−5. Some of the colonies grown on the antibiotic-containing plate are tested for the biphenomycin B MIC. One colony with an MIC of >50 μM is selected for further use, and the strain is referred to as RN4220Bi^R.

[5] abbreviates: Staphylococcus aureus, 133, minimal medium + 0.4% BH broth.
The mark [6] stands for this setting: Enterococcus faecium, L4001, liquid dilution, test medium with 10% FCS, 5% CO2, 18-24 h, read-out: MIC E. faecium L4001.

In the case of `NC[C@H](O)C[C@@H]1NC(=O)[C@@H](N)Cc2cc(ccc2O)-c2ccc(O)c(c2)C[C@@H](C(=O)O)NC1=O` [Biphenomycin B, biphenomycin B, reference compound], the minimal inhibitory concentration (MIC) is recorded as 0.1 µM with S. aureus 133 [1] (minimal medium + 0.4% BH broth) and >25 µM with E. faecium L4001 [2] (liquid dilution, test medium with 10% FCS, 5% CO2, 18-24 h, read-out: MIC E. faecium L4001). In the assay with S. aureus 133 [3], the “MIC S. aureus 133” value was <0.03 µg/mL. In addition, the “MIC S. aureus T17” value against S. aureus T17 was >32 µg/mL. In addition, in the assay with E. faecium L4001 [4], the “MIC E. faecium L4001” value amounted to 0.5 µg/mL (≈ 1.06 µM). The “MIC, selected colony RN4220Bi^R” value with S. aureus RN4220Bi^R is > 50 µM.

Take `CN1C(=O)[C@H](C[C@@H](O)CN)NC(=O)[C@@H](N)Cc2cc(ccc2O)-c2ccc(Cl)c(c2)C[C@H]1C(=O)NCC(O)CN` (stereo partly drawn) [Example 9]: the MIC in the assay on S. aureus 133 [1] (setting [5]) came to 0.35 µM; in the assay with E. faecium L4001 [2] (setting [6]), 11 µM (≈ 6.35 µg/mL); in the assay on S. aureus 133 [3] it was 2 µg/mL (≈ 3.47 µM); in the assay on S. aureus T17, 4 µg/mL (≈ 6.93 µM); in the assay on E. faecium L4001 [4], 16 µg/mL (≈ 27.7 µM).

Turning to `NCCNC(=O)[C@@H]1Cc2cc(ccc2F)-c2ccc(O)c(c2)C[C@H](N)C(=O)N[C@@H](C[C@@H](O)CN)C(=O)N1` [Example 12], the MIC was 0.16 µM in the assay with S. aureus 133 [1] (setting [5]); 20 µM (≈ 10.3 µg/mL) with E. faecium L4001 [2] (setting [6]); 1 µg/mL (≈ 1.94 µM) in the assay with S. aureus 133 [3]; 1 µg/mL (≈ 1.94 µM) with S. aureus T17; 16 µg/mL (≈ 31 µM) with E. faecium L4001 [4].

On to `NCCNC(=O)[C@@H]1Cc2cccc(c2)-c2ccc(O)c(c2)C[C@H](N)C(=O)N[C@@H](C[C@@H](O)CN)C(=O)N1` [Example 36, (8S,11S,14S)-14-Amino-N-(2-aminoethyl)-11-[(2R) -3-amino-2-hydroxypropyl]-17-hydroxy-10,13-dioxo-9,12-diazatricyclo-[14.3.1.1^2,6]henicosa-1(20),2(21),3,5,16,18-hexaene-8-carboxamide tri(hydrotrifluoroacetate)], for which the MIC is 0.4 µM in the assay on S. aureus 133 [1] (setting [5]); > 25 µM with E. faecium L4001 [2] (Enterococcus faecium, L4001, read-out: MIC E. faecium L4001); 1 µg/mL (≈ 2.01 µM) in the assay with S. aureus 133 [3]; 2 µg/mL (≈ 4.01 µM) in the assay with S. aureus T17; 8 µg/mL (≈ 16 µM) in the assay on E. faecium L4001 [4].
